From US7846918B2, “Exemestane compounds, compositions and related methods of use” (Endece, LLC, priority 2005, dated 2010) come the findings set out here.

What all share (type): cell-based
Experiment [1] relates to MDA-MB-231. Briefly: MTS cell growth inhibition assay, MDA-MB-231. The conditions noted are these: Homo sapiens, MDA-MB-231, Breast; for inhibition at 200 µM: read-out: Mean Percent Response at 200 μM (percent of cell growth inhibited); for IC50: mean of 2 independent trials. On the procedure:
(§1) Activity Of 6-Methyloxamethyl Exemestane Compounds Against Cancer Cell Lines. Cancer-derived cell lines were used for the following growth inhibition assay. The ability of the compound of Formula (B) above and the compound of Formula (D) above to inhibit cancer-derived cell growth was compared to exemestane as a control.
(§2) Cell viability is determined using the MTS assay. This calorimetric procedure measures conversion of the MTS reagent (a tetrazoleum salt) to formazan by living cells. Formazan production is quantified by spectrophotometric measurement at 490 nm and is proportional to viable cell number. Cells are cultured and treated. Following treatment, 100 μl of growth medium is removed and cells incubated with 20 μl CellTiter 96® AQueous One Solution Reagent (1.9 mg/ml in PBS, pH 6.0) for 1-3 hours at 37° C. Absorbance (OD) values are measured using a μQuant microplate reader at a single wavelength of 490 nm.
(§3) Additional assays were performed to evaluate the growth-inhibiting activity of the compound of Formula (B) above and the compound of Formula (D) compared to exemestane as a control.

Experiment [2] concerns MCF-7. The experiment in a line: MTS cell growth inhibition assay, MCF-7. The conditions noted are these: Homo sapiens, MCF7, MCF-7, Breast; for inhibition at 200 µM: read-out: Mean Percent Response at 200 μM (percent of cell growth inhibited); for IC50: mean of 2 independent trials. On the procedure:
as §1, §2, §3

In experiment [3] the test system is MV 522. Briefly: MTS cell growth inhibition assay, MV 522. The conditions noted are these: MV522, MV 522, Lung; for inhibition at 200 µM: read-out: Mean Percent Response at 200 μM (percent of cell growth inhibited); for IC50: mean of 2 independent trials. On the procedure: as §1, §2, §3
For experiment [4], the system named is NIH: H23. Briefly: MTS cell growth inhibition assay, NIH: H23. The conditions noted are these: NIH: H23, Lung; for inhibition at 200 µM: read-out: Mean Percent Response at 200 μM (percent of cell growth inhibited); for IC50: mean of 2 independent trials. On the procedure: as §1, §2, §3
For experiment [5], the system named is HT-29. The experiment in a line: MTS cell growth inhibition assay, HT-29. Particulars: Homo sapiens, HT-29, Colon; for inhibition at 200 µM: read-out: Mean Percent Response at 200 μM (percent of cell growth inhibited); for IC50: mean of 2 independent trials. The protocol:
as §1, §2, §3

Experiment [6] deals with PC-3. Briefly: MTS cell growth inhibition assay, PC-3. Particulars: Homo sapiens, PC-3, Prostrate; for inhibition at 200 µM: read-out: Mean Percent Response at 200 μM (percent of cell growth inhibited); for IC50: mean of 2 independent trials. On the procedure:
as §1, §2, §3

Experiment [7] concerns SK-OV-3. The experiment in a line: MTS cell growth inhibition assay, SK-OV-3. Particulars: Homo sapiens, SK-OV-3, Ovarian; for inhibition at 200 µM: read-out: Mean Percent Response at 200 μM (percent of cell growth inhibited); for IC50: mean of 2 independent trials. On the procedure:
as §1, §2, §3

Experiment [8] deals with NIH: OVCAR-3. Briefly: MTS cell growth inhibition assay, NIH: OVCAR-3. Particulars: Homo sapiens, NIH: OVCAR-3, Ovarian; for inhibition at 200 µM: read-out: Mean Percent Response at 200 μM (percent of cell growth inhibited); for IC50: mean of 2 independent trials. The protocol: as §1, §2, §3
Experiment [9] deals with Capan-1. The experiment in a line: MTS cell growth inhibition assay, Capan-1. The conditions noted are these: Homo sapiens, Capan-1, Pancreas; for inhibition at 200 µM: read-out: Mean Percent Response at 200 μM (percent of cell growth inhibited); for IC50: mean of 2 independent trials. The protocol: as §1, §2, §3
The test system of experiment [10] is Capan-2. Briefly: MTS cell growth inhibition assay, Capan-2. The conditions noted are these: Homo sapiens, Capan-2, Pancreas; for inhibition at 200 µM: read-out: Mean Percent Response at 200 μM (percent of cell growth inhibited); for IC50: mean of 2 independent trials. On the procedure:
as §1, §2, §3

The subject of experiment [11] is a variety of cancer cell lines. Briefly: Growth inhibition across the cancer cell line panel. Particulars: for activity against cancer cell lines, in words: text summary of Tables 1-3. The protocol:
as §1, §2, §3

With `COC[C@H]1C[C@@H]2[C@H](CC[C@]3(C)C(=O)CC[C@@H]23)[C@@]2(C)C=CC(=O)C=C12` [Exemestane 6S], the inhibition at 200 µM worked out at 21% in [1]; 0% in experiment [2]; 19% in [3]; 12% in experiment [4]; 8% in experiment [5]; 0% in experiment [6]. Also, the inhibition at 200 µM in experiment [7] came to 0.3%; in [8], 6%; in experiment [9], 5%; in experiment [10], 15%. In addition, the concentration for half-maximal inhibition (IC50) in [1], in [2], in [3], in [4], in experiment [5] and in experiment [6] was greater than 200 µM in each case. The IC50 in experiment [7], in experiment [8], in [9] and in experiment [10] was greater than 200 µM throughout. For the same molecule, the “activity against cancer cell lines, in words” value in experiment [11] was “works best against cell lines that are estrogen (−) and/or aromatase (+)”.
With `C=C1C[C@@H]2[C@H](CC[C@]3(C)C(=O)CC[C@@H]23)[C@@]2(C)C=CC(=O)C=C12` [Exemestane, 6-methylenandrosta-1,4-diene-3,17-dione], the inhibition at 200 µM in experiment [1] came out at 67%; in experiment [2], 68%; in [3], 79%; in experiment [4], 81%; in experiment [5], 75%; in experiment [6], 67%. Further, the inhibition at 200 µM in experiment [7] stood at 85%; in [8], 88%; in experiment [9], 74%; in [10], 56%. For the same molecule, the 50% inhibitory concentration (IC50) (in general, the concentration that inhibits the measured activity by half) in experiment [1] worked out at 64 µM; in [2], 96 µM; in experiment [3], 103 µM; in experiment [4], 50 µM; in [5], 103 µM; in experiment [6], 105 µM. Further, the half-maximal inhibitory concentration (IC50) in [7] was 78 µM; in [8] it was 73 µM; in experiment [9], 98 µM; in experiment [10] it was 94 µM. For the same molecule, the “activity against cancer cell lines, in words” value in experiment [11] is recorded as “marginal activity”.
As to `COC[C@@H]1C[C@@H]2[C@H](CC[C@]3(C)C(=O)CC[C@@H]23)[C@@]2(C)C=CC(=O)C=C12` [Exemestane 6R], the inhibition at 200 µM in [1] amounted to 95%; in experiment [2], 56%; in experiment [3], 96%; in experiment [4], 65%; in [5], 80%; in experiment [6], 78%. The inhibition at 200 µM in [7] is 98%; in [8], 78%; in experiment [9], 28%; in experiment [10], 46%; in experiment [11] (see Table 2, 200 μM, read-out: inhibition against a variety of cancer cell lines), 95 to 98%. The IC50 in experiment [1] was 77 µM; in [2], greater than 200 µM; in experiment [3] it was 95 µM; in [4] it was 106 µM; in [5], 110 µM; in [6] it was 108 µM. In addition, the IC50 is 106 µM in experiment [7], 54 µM in experiment [8], 176 µM in experiment [9] and 104 µM in experiment [10].
